# Test results from PubChem BioAssay (NCI).
#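 Assay format: 96-well plates, 48-hour exposure. Abbreviation: GI50, concentration required for 50% inhibition of growth. At the TGI there is no net growth.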
# Assays:
# Test in all cases: NCI anticancer screen, dose series, 48 h
# 786-0 renal = test system: 786-0 renal
# A498 renal = test system: A498 renal
# A549 NSCLC = test system: A549 NSCLC
# ACHN renal = test system: ACHN renal
# CAKI-1 renal = test system: CAKI-1 renal
# CCRF-CEM leukemia = test system: CCRF-CEM leukemia
# COLO 205 colon = test system: COLO 205 colon
# DLD-1 colon = test system: DLD-1 colon
# DMS 114 small cell lung = test system: DMS 114 small cell lung
# DMS 273 small cell lung = test system: DMS 273 small cell lung
# EKVX NSCLC = test system: EKVX NSCLC
# HCC-2998 colon = test system: HCC-2998 colon
# HCT-116 colon = test system: HCT-116 colon
# HCT-15 colon = test system: HCT-15 colon
# HL-60(TB) leukemia = test system: HL-60(TB) leukemia
# HOP-62 NSCLC = test system: HOP-62 NSCLC
# HOP-92 NSCLC = test system: HOP-92 NSCLC
# HT29 colon = test system: HT29 colon
# IGROV1 ovarian = test system: IGROV1 ovarian
# K-562 leukemia = test system: K-562 leukemia
# KM12 colon = test system: KM12 colon
# KM20L2 colon = test system: KM20L2 colon
# LOX IMVI melanoma = test system: LOX IMVI melanoma
# LXFL 529 NSCLC = test system: LXFL 529 NSCLC
# M14 melanoma = test system: M14 melanoma
# M19-MEL melanoma = test system: M19-MEL melanoma
# MALME-3M melanoma = test system: MALME-3M melanoma
# MOLT-4 leukemia = test system: MOLT-4 leukemia
# NCI-H226 lung = test system: NCI-H226 lung
# NCI-H23 lung = test system: NCI-H23 lung
# NCI-H460 lung = test system: NCI-H460 lung
# NCI-H522 lung = test system: NCI-H522 lung
# OVCAR-3 ovarian = test system: OVCAR-3 ovarian
# OVCAR-4 ovarian = test system: OVCAR-4 ovarian
# OVCAR-5 ovarian = test system: OVCAR-5 ovarian
# OVCAR-8 ovarian = test system: OVCAR-8 ovarian
# RPMI-8226 leukemia = test system: RPMI-8226 leukemia
# RXF 393 renal = test system: RXF 393 renal
# SF-268 CNS = test system: SF-268 CNS
# SF-295 CNS = test system: SF-295 CNS
# SF-539 CNS = test system: SF-539 CNS
# SK-MEL-2 melanoma = test system: SK-MEL-2 melanoma
# SK-MEL-28 melanoma = test system: SK-MEL-28 melanoma
# SK-MEL-5 melanoma = test system: SK-MEL-5 melanoma
# SK-OV-3 ovarian = test system: SK-OV-3 ovarian
# SN12C renal = test system: SN12C renal
# SNB-19 CNS = test system: SNB-19 CNS
# SNB-75 CNS = test system: SNB-75 CNS
# SNB-78 CNS = test system: SNB-78 CNS
# SW-620 colon = test system: SW-620 colon
# TK-10 renal = test system: TK-10 renal
# U251 CNS = test system: U251 CNS
# UACC-257 melanoma = test system: UACC-257 melanoma
# UACC-62 melanoma = test system: UACC-62 melanoma
# UO-31 renal = test system: UO-31 renal
# XF 498 CNS = test system: XF 498 CNS
smiles,measurement,setting,value
CCCCCCC[CH2][Sn]([Cl])([Cl])[CH2]CCCCCCC,GI50,786-0 renal,4.58 µM
same,TGI,786-0 renal,17.1 µM
same,GI50,A498 renal,6.51 µM
same,TGI,A498 renal,18.8 µM
same,GI50,A549 NSCLC,17.5 µM
same,TGI,A549 NSCLC,34.3 µM
same,GI50,ACHN renal,7.17 µM
same,TGI,ACHN renal,19.9 µM
same,GI50,CAKI-1 renal,11 µM
same,TGI,CAKI-1 renal,23.2 µM
same,GI50,CCRF-CEM leukemia,3.27 µM
same,TGI,CCRF-CEM leukemia,10.9 µM
same,GI50,COLO 205 colon,6 µM
same,TGI,COLO 205 colon,17.3 µM
same,GI50,DLD-1 colon,5.37 µM
same,TGI,DLD-1 colon,17.6 µM
same,GI50,DMS 114 small cell lung,3.93 µM
same,TGI,DMS 114 small cell lung,13.9 µM
same,GI50,DMS 273 small cell lung,4.9 µM
same,TGI,DMS 273 small cell lung,16.8 µM
same,GI50,EKVX NSCLC,10.4 µM
same,TGI,EKVX NSCLC,22.2 µM
same,GI50,HCC-2998 colon,4.23 µM
same,TGI,HCC-2998 colon,17 µM
same,GI50,HCT-116 colon,3.66 µM
same,TGI,HCT-116 colon,15.3 µM
same,GI50,HCT-15 colon,5.69 µM
same,TGI,HCT-15 colon,18.7 µM
same,GI50,HL-60(TB) leukemia,3.29 µM
same,TGI,HL-60(TB) leukemia,11.2 µM
same,GI50,HOP-62 NSCLC,14.5 µM
same,TGI,HOP-62 NSCLC,27.5 µM
same,GI50,HOP-92 NSCLC,5.27 µM
same,TGI,HOP-92 NSCLC,18.4 µM
same,GI50,HT29 colon,6.83 µM
same,TGI,HT29 colon,20 µM
same,GI50,IGROV1 ovarian,7.61 µM
same,TGI,IGROV1 ovarian,20.3 µM
same,GI50,K-562 leukemia,3.66 µM
same,TGI,K-562 leukemia,19.7 µM
same,GI50,KM12 colon,5.98 µM
same,TGI,KM12 colon,18.8 µM
same,GI50,KM20L2 colon,11.1 µM
same,TGI,KM20L2 colon,23.2 µM
same,GI50,LOX IMVI melanoma,3.56 µM
same,TGI,LOX IMVI melanoma,11.5 µM
same,GI50,LXFL 529 NSCLC,3.05 µM
same,TGI,LXFL 529 NSCLC,10.8 µM
same,GI50,M14 melanoma,6.94 µM
same,TGI,M14 melanoma,19.5 µM
same,GI50,M19-MEL melanoma,9.31 µM
same,TGI,M19-MEL melanoma,21.3 µM
same,GI50,MALME-3M melanoma,5.2 µM
same,TGI,MALME-3M melanoma,18.1 µM
same,GI50,MOLT-4 leukemia,2.96 µM
same,TGI,MOLT-4 leukemia,10.5 µM
same,GI50,NCI-H226 lung,10.1 µM
same,TGI,NCI-H226 lung,22.4 µM
same,GI50,NCI-H23 lung,6.84 µM
same,TGI,NCI-H23 lung,18.8 µM
same,GI50,NCI-H460 lung,13.2 µM
same,TGI,NCI-H460 lung,26.8 µM
same,GI50,NCI-H522 lung,2.3 µM
same,TGI,NCI-H522 lung,4.95 µM
same,GI50,OVCAR-3 ovarian,4.91 µM
same,TGI,OVCAR-3 ovarian,17 µM
same,GI50,OVCAR-4 ovarian,10.5 µM
same,TGI,OVCAR-4 ovarian,22.4 µM
same,GI50,OVCAR-5 ovarian,13.3 µM
same,TGI,OVCAR-5 ovarian,26.2 µM
same,GI50,OVCAR-8 ovarian,4.46 µM
same,TGI,OVCAR-8 ovarian,16.6 µM
same,GI50,RPMI-8226 leukemia,2.24 µM
same,TGI,RPMI-8226 leukemia,12.6 µM
same,GI50,RXF 393 renal,2.7 µM
same,TGI,RXF 393 renal,9.01 µM
same,GI50,SF-268 CNS,4.11 µM
same,TGI,SF-268 CNS,15.4 µM
same,GI50,SF-295 CNS,12.5 µM
same,TGI,SF-295 CNS,25 µM
same,GI50,SF-539 CNS,4.36 µM
same,TGI,SF-539 CNS,16.6 µM
same,GI50,SK-MEL-2 melanoma,2.45 µM
same,TGI,SK-MEL-2 melanoma,7.47 µM
same,GI50,SK-MEL-28 melanoma,3.82 µM
same,TGI,SK-MEL-28 melanoma,12.9 µM
same,GI50,SK-MEL-5 melanoma,6.88 µM
same,TGI,SK-MEL-5 melanoma,19.4 µM
same,GI50,SK-OV-3 ovarian,16.6 µM
same,TGI,SK-OV-3 ovarian,30.2 µM
same,GI50,SN12C renal,7.41 µM
same,TGI,SN12C renal,19.9 µM
same,GI50,SNB-19 CNS,7.15 µM
same,TGI,SNB-19 CNS,20 µM
same,GI50,SNB-75 CNS,3.67 µM
same,TGI,SNB-75 CNS,18.1 µM
same,GI50,SNB-78 CNS,6.25 µM
same,TGI,SNB-78 CNS,21.4 µM
same,GI50,SW-620 colon,6.66 µM
same,TGI,SW-620 colon,19.3 µM
same,GI50,TK-10 renal,16 µM
same,TGI,TK-10 renal,29.4 µM
same,GI50,U251 CNS,2.21 µM
same,TGI,U251 CNS,6.09 µM
same,GI50,UACC-257 melanoma,4.38 µM
same,TGI,UACC-257 melanoma,15.9 µM
same,GI50,UACC-62 melanoma,2.05 µM
same,TGI,UACC-62 melanoma,4.97 µM
same,GI50,UO-31 renal,10.6 µM
same,TGI,UO-31 renal,22.4 µM
same,GI50,XF 498 CNS,4.9 µM
same,TGI,XF 498 CNS,16.5 µM
C[C@]12CC[C@H](O)CC1=CC[C@@H]1C2CC[C@]2(C)NC(=O)C(C#N)CC12 (stereo partly specified),TGI,786-0 renal,> 100 µM
same,TGI,A498 renal,> 100 µM
same,TGI,A549 NSCLC,> 100 µM
same,TGI,ACHN renal,> 100 µM
same,TGI,CAKI-1 renal,> 100 µM
same,TGI,CCRF-CEM leukemia,> 100 µM
same,TGI,DLD-1 colon,> 100 µM
same,TGI,DMS 114 small cell lung,> 100 µM
same,TGI,DMS 273 small cell lung,> 100 µM
same,TGI,EKVX NSCLC,> 100 µM
same,TGI,HCC-2998 colon,> 100 µM
same,TGI,HCT-116 colon,> 100 µM
same,TGI,HCT-15 colon,> 100 µM
same,TGI,HL-60(TB) leukemia,> 100 µM
same,TGI,HOP-62 NSCLC,> 100 µM
same,TGI,HT29 colon,> 100 µM
same,TGI,IGROV1 ovarian,> 100 µM
same,TGI,K-562 leukemia,> 100 µM
same,TGI,KM12 colon,> 100 µM
same,TGI,KM20L2 colon,> 100 µM
same,TGI,LXFL 529 NSCLC,> 100 µM
same,TGI,M14 melanoma,> 100 µM
same,TGI,M19-MEL melanoma,> 100 µM
same,TGI,MALME-3M melanoma,> 100 µM
same,TGI,MOLT-4 leukemia,> 100 µM
same,TGI,NCI-H226 lung,> 100 µM
same,TGI,NCI-H23 lung,> 100 µM
same,TGI,NCI-H460 lung,> 100 µM
same,TGI,OVCAR-3 ovarian,> 100 µM
same,TGI,OVCAR-4 ovarian,> 100 µM
same,TGI,OVCAR-5 ovarian,> 100 µM
same,TGI,OVCAR-8 ovarian,> 100 µM
same,TGI,RPMI-8226 leukemia,> 100 µM
same,TGI,RXF 393 renal,> 100 µM
same,TGI,SF-295 CNS,> 100 µM
same,TGI,SF-539 CNS,> 100 µM
same,TGI,SK-MEL-2 melanoma,> 100 µM
same,TGI,SK-MEL-28 melanoma,> 100 µM
same,TGI,SK-MEL-5 melanoma,> 100 µM
same,TGI,SK-OV-3 ovarian,> 100 µM
same,TGI,SNB-75 CNS,> 100 µM
same,TGI,SNB-78 CNS,> 100 µM
same,TGI,SW-620 colon,> 100 µM
same,TGI,TK-10 renal,> 100 µM
same,TGI,U251 CNS,> 100 µM
same,TGI,UACC-257 melanoma,> 100 µM
same,TGI,UACC-62 melanoma,> 100 µM
same,TGI,UO-31 renal,> 100 µM
same,TGI,XF 498 CNS,> 100 µM
